# Results published in patent US20220025036A1, “USE OF IL-1BETA BINDING ANTIBODIES” (NOVARTIS AG, priority 2018, published 2022).
# Key:
# 4T1 tumors [1] = assay: 4T1 tumors treated with 01BSUR and docetaxel, tumor burden; assay type: in vivo, mouse; settings: 4T1 s.c., treated days 8 and 15 post implant
# Description: FIG. 16. Mice were implanted with 4T1 cells sc and treated with the indicated treatments on days 8 and 15 post tumor implant. There were 10 mice in each group.
# (§1) Female Balb/c mice with 4T1 tumors implanted subcutaneously (s.c.) on the right flank were treated 8 and 15 days post-tumor implant initiating when the tumors reached about 100 mm^3 with the isotype antibody, docetaxel, 01BSUR, or a combination of docetaxel and 01BSUR. […] 5 days after the first dose, tumors were harvested and analyzed for changes to the infiltrating immune cell populations. This was done again at the end point of the study, 4 days after the second dose.
# LL2 = assay: Anti-IL-1β in combination with docetaxel in aggressive lung model (LL2); assay type: in vivo, mouse; settings: LL2, FIG. 15A
# 4T1 tumors [2] = assay: TIL analysis of 4T1 tumors after docetaxel and 01BSUR; assay type: in vivo, mouse
# Description: as §1
# interleukin 6 = settings: 50, 150, 300 mg s.c. every 3 months, dose-dependent; median follow-up 3.7 years; cited from earlier work
# [3] = system: MDA-MB-231Luc2-TdTomato cells; assay: Spontaneous human breast cancer metastasis to human bone implants in NOD SCID mice; assay type: in vivo, mouse; settings: for size of bone metastases vs control group: FIG. 4a; for mice with metastasis detected in human bone implants: n=10/group, IL-1Ra 1 mg/kg daily, canakinumab 10 mg/kg s.c. every 14 days from day 7, control 7 out of 10; for tumor cells counted in whole blood: placebo 108 tumor cells/ml
# Description: FIG. 4. Pharmacological blockade of IL-1β inhibits spontaneous metastasis to human bone in vivo. Female NOD-SCID mice bearing two 0.5 cm^3 pieces of human femoral bone received intra-mammary injections of MDA-MB-231Luc2-TdTomato cells. […] All animals were culled 35 days following tumour cell injection. Effects on bone metastases (a) were assessed in vivo and immediately post-mortem by luciferase imaging and confirmed ex vivo on histological sections. Data are shown as numbers of photons per second emitted 2 minutes following sub-cutaneous injection of D-luciferin. Effects on numbers of tumour cells detected in the circulation are shown in (b). *=P<0.01, **=P<0.001, ***=P<0.0001.
# To model human breast cancer metastasis to human bone implants two human bone discs were implanted subcutaneously into 10-week old female NOD SCID mice (n=10/group) under isofluorane anaesthetic. Mice received an injection of 0.003 mg vetergesic and Septrin was added to the drinking water for 1 week following bone implantation. Mice were left for 4 weeks before injecting 1×10^5 MDA-MB-231 Luc2-TdTomato, MCF7 Luc2 or T47D Luc2 cells in 20% Martigel/79% PBS/1% […] into the two hind mammary fat pads. Primary tumor growth and development of metastases was monitored weekly using an IVIS […] system (Caliper Life Sciences) following sub-cutaneous injection of 30 mg/ml D-luciferin (Invitrogen). On termination of experiments mammary tumors, circulating tumor cells, serum and bone metastases were resected. RNA was processed for downstream analysis by real time PCR, and cell lysates were taken for protein analysis and whole tissue for histology as previously described (Nutter et al., 2014; Ottewell et al., 2014a).
# (§2) Tumor cells, serum, and bone were subsequently resected for downstream analysis.
# Whole blood was centrifuged at 10,000×g for 5 minutes and the serum removed for ELISA assays. The cell pellet was re-suspended in 5 ml of FSM lysis solution (Sigma-Aldrich, Pool, UK) to lyse red blood cells. Remaining cells were re-pelleted, washed 3× in PBS and re-suspended in a solution of PBS/10% FCS. Samples from 10 mice per group were pooled prior to isolation of TdTomato positive tumor cells using a MoFlow High performance cell sorter (Beckman Coulter, Cambridge UK) with the […] laser line from a Coherent I-90C tenable argon ion (Coherent, Santa Clara, Calif.). TdTomato fluorescence was detected by a 555LP dichroic long pass and a 580/30 nm band pass filter. Acquisition and analysis of cells was performed using Summit 4.3 software. Following sorting cells were immediately placed in RNA protect cell reagent (Ambion, Paisley, Renfrew, UK) and stored at −80° C. before RNA extraction. For counting numbers of circulating tumor cells, TdTomato fluorescence was detected using a 561 nm laser and an YL1-A filter (585/16 emission filter). Acquisition and analysis of cells was performed using Attune N×T software.
# bone vasculature = assay: Bone microvasculature after IL-1 blockade in mice (CD34 staining, ELISA for endothelin 1 and VEGF); assay type: in vivo, mouse; settings: for average length of CD34+ blood vessels in trabecular bone: IL-1Ra in BALB/c nude mice, canakinumab in C57BL/6 mice; for average length of CD34+ blood vessels in trabecular bone / endothelin 1 concentration (ELISA) vs control: p<0.01; for VEGF concentration (ELISA) vs control / endothelin 1 concentration (ELISA) vs control: bone marrow; for VEGF concentration (ELISA) vs control: IL-1R antagonist p<0.01, canakinumab p<0.001
# Description: FIG. 7. IL-1β in the bone microenvironment stimulates expansion of the bone metastatic niche. Effects of adding 40 pg/ml or 5 ng/ml recombinant IL-1β to MDA-MB-231 or T47D breast cancer cells is shown in (a) and effects on adding 20 pg/ml, 40 pg/ml or 5 ng/ml IL-1B on proliferation of HS5, bone marrow, or OB1, osteoblasts, are shown in b) and c) respectively. (d) IL-1 driven alterations to the bone vasculature was measured following CD34 staining in the trabecular region of the tibiae from 10-12-week old female IL-1R1 knockout mice. […] Data are shown as mean+/−SEM, *=P<0.01, **=P<0.001, ***=P<0.0001.
# FIG. 8. Suppression of IL-1 signalling affects bone integrity and vasculature. […] Data shown are mean+/−SEM, *=P<0.01, **=P<0.001, ***=P<0.0001 compared with control.
# as §2
# [4] = system: high-sensitivity C-reactive protein (hsCRP); settings: 50, 150, 300 mg s.c. every 3 months, dose-dependent; median follow-up 3.7 years; cited from earlier work
# mouse IL-1β = mouse IL-1β (Mus musculus, UniProt P10749); assay: Cross-reactivity with mouse IL-1β; assay type: binding
# Sequence of mouse IL-1β (P10749 118-269): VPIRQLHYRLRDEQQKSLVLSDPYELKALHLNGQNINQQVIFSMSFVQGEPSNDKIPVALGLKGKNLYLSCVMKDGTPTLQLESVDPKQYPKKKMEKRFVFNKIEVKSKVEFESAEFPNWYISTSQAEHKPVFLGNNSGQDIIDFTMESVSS
# [5] = Gevokizumab clinical pharmacokinetics; assay type: in vivo, human; settings: subcutaneous administration
# hsCRP = assay: Gevokizumab clinical hsCRP reduction in type 2 diabetes patients; assay type: in vivo, human; settings: top dose 0.3 mg/kg (~20 mg) Q4W
# Description: FIG. 12. Clinical data after gevokizumab treatment (panel a) and its extrapolation to higher doses (panels b, c, and d). Adjusted percent change from baseline in hsCRP in patients in a). The hsCRP exposure-response relationship is shown in b) for six different hsCRP base line concentrations.
# CML LSC = settings: recombinant IL-1RA; cited from earlier work
compound,measurement,setting,value
CC(=O)O[C@@]12CO[C@@H]1C[C@H](O)[C@@]1(C)C(=O)[C@H](O)C3=C(C)[C@@H](OC(=O)[C@H](O)[C@@H](NC(=O)OC(C)(C)C)c4ccccc4)C[C@@](O)([C@@H](OC(=O)c4ccccc4)[C@H]21)C3(C)C [docetaxel],tumor growth vs vehicle/isotype control,4T1 tumors [1],enhanced
same,efficacy (tumor growth),LL2,modest efficacy
same,CD4+ and CD8+ T cells expressing TIM-3 vs control,4T1 tumors [2]; 4 days after a second dose,no change
same,granulocytic MDSC in 4T1 tumors,4T1 tumors [2]; 5 days after a single dose,decrease
same,monocytes in 4T1 tumors vs vehicle/isotype,4T1 tumors [2]; 5 days after a single dose,decrease
same,monocytic MDSC in 4T1 tumors,4T1 tumors [2]; 5 days after a single dose,decrease
same,neutrophils in 4T1 tumors,4T1 tumors [2]; 5 days after a single dose,decrease
"canakinumab: high-affinity, fully human monoclonal antibody of the IgG1/k to interleukin-1β (SEQ ID NO:17 and 18)",reductions in concentrations of interleukin 6 compared with placebo,interleukin 6,25-43%
same,size of bone metastases vs control group,[3],smaller
same,mice with metastasis detected in human bone implants,[3],1 out of 10
same,tumor cells counted in whole blood,[3],3 tumor cells/ml
same,average length of CD34+ blood vessels in trabecular bone,bone vasculature,reduced
same,VEGF concentration (ELISA) vs control,bone vasculature,reduced concentrations
same,endothelin 1 concentration (ELISA) vs control,bone vasculature,reduced concentrations
same,reductions in concentrations of hsCRP compared with placebo,[4],26-41%
same,cross-reactivity with mouse IL-1β,mouse IL-1β,does not cross-react
"gevokizumab: high-affinity, humanized monoclonal antibody of the IgG2 isotype to interleukin-1β (SEQ ID NO:19 and 20)",Bioavailability,[5],about 56%
same,reduction of hsCRP,hsCRP,up to 45%
IL-1Ra: recombinant IL-1 receptor antagonist (Anakinra),growth of CML LSC,CML LSC,inhibited growth
same,size of bone metastases vs control group,[3],smaller
same,mice with metastasis detected in human bone implants,[3],4 out of 10
same,tumor cells counted in whole blood,[3],3 tumor cells/ml
same,average length of CD34+ blood vessels in trabecular bone,bone vasculature,reduced
same,VEGF concentration (ELISA) vs control,bone vasculature,reduced concentrations
same,endothelin 1 concentration (ELISA) vs control,bone vasculature,reduced concentrations
